Test results published in patent US9572890B2, “Oral formulations of mitochondrially-targeted antioxidants and their preparation and use” (MITOTECH SA, priority 2011, dated 2017).

Experiments:
[1] = tested on: collagen-induced arthritis; assay: Collagen-induced arthritis (CIA); assay type: in vivo, Wistar rats; conditions: SkQ1 in water 250 nmol/kg per day from day 14 or day 24 after collagen injection
Method: Thirty Wistar rats with free food and water access were injected with complete Freund adjuvant and 250 mg type II collagen to induce CIA. Starting from 14 d and from 24 d after injection, two groups of 10 animals in each were daily fed with pharmaceutical form of SkQ1 in water comprising 250 nmol/kg body weight per day (groups “SkQ1 from day 14” and “SkQ1 from day 24”; Group “Control” received water without drugs).

db/db mice = assay: Hepatic TBA-reactive substance content (MDA) in db/db diabetic mice; assay type: in vivo; conditions: SkQ1 in 20% glycerol, 250 nmol/kg per day orally for 12 weeks
Method: SkQ1 in 20% glycerol, as described below in Example 8 (250 nmol/kg per day) was orally administered to 10 to 12 week old homozygous db/db mice (n=8), while vehicle db/db (n=8) and non-diabetic control heterozygous db/++ (n=5) mice for 12 weeks. The hepatic TBA-reactive substance content (MDA) was determined by assay according to the method of Mihara et al. ((1978) Anal. Biochem., 86:271-278).

[2] = tested on: human endothelial cells EA.hy926; assay: TNF-α induced death of endothelial cells (MTT test); assay type: cell-based; conditions: 2 nM pre-incubation 4 d; TNF-α 0.25 to 50 ng/ml for 2 d
Method: Human endothelial cell line EA.hy926 (ATCC Collection; catalog number CRL-2922) was used as a model of vascular endothelium. This cell line is similar to primary HUVEC cell line (Edgell et al. (1983) PNAS, 80(12):3734-7; Edgell et al. (1990) In Vitro Cell Dev Biol., 26(12):1167-72) and widely used as a relevant model for inflammation studies (Riesbeck et al. (1998) Clin. Vaccine Immunol., 5:5675-682).
Accordingly, human endothelial cells EA.hy926 were pre-incubated with 0.2 nM SkQR1 or 2 nM SkQ1 solution in Dulbecco's Modified Eagle's Medium (DMEM) supplemented with 10% of fetal serum (Example 1) for 4 d. After that the cells were incubated overnight with fresh DMEM medium with 0.2% of fetal serum. The cells were incubated 2 d with TNF-α (0.25 ng/ml to 50 ng/ml) and cell death was monitored using standard MTT test (Berridge et al. (1996) Biochemica, 4:14-9). The data from this assay is shown as means±S.E. at least for 3 separate experiments.

[3] = Storage stability of oxidized SkQ1 formulations (Example 8); assay type: physicochemical
Method: The stability of SkQ1 in the prepared solution was investigated by storage at RT and at 60° C. (Table 4).
The stability of SkQ1 in the prepared solution was investigated by storage at 60° C. (Table 5).
The stability of SkQ1 in the prepared composition was investigated by storage at 4° C. in darkness (Table 6).
The stability of SkQ1 in the prepared composition was investigated by storage at 60° C. in darkness (Table 7).
The stability of SkQ1 in the prepared composition was investigated by storage at RT in darkness (Table 8).
The stability of SkQ1 in the prepared composition was investigated by storage at 60° C. in darkness (Table 9).
The stability of SkQ1 in the prepared composition was investigated by storage at RT in darkness (Table 10).
The stability of SkQ1 in the prepared composition was investigated by storage at 60° C. in darkness (Table 11).

alloxan diabetes = assay: Alloxan diabetes, blood glucose level (glucose oxidase method); assay type: in vivo, rats; conditions: 250 nM SkQ1 in drinking water (approx. 50 nmol/kg per day) 10 d before and 14 d after alloxan 100 mg/kg s.c.; 2 weeks after alloxan
Method: Induction of the alloxan diabetes was performed as follows: Two groups of laboratory rats (20 animals in each group) with free food and water access fed a 250 nM solution of SkQ1 for 10 d. The daily rat consumption was 60 ml water solution (containing 15 nmoles SkQ1). The average weight of rats was 300 g. Thus, rats consumed approximately 50 nmol/kg body weight per day. […] After 10 d, rats were subcutaneously (in the area of the thigh) injected with alloxan dissolved in isotonic salt solution of 0.9% w/v of NaCl (100 mg/kg body weight; groups “Alloxan+SkQ1” and “Alloxan.” Control animals were injected with salt solution without alloxan (groups “Control+SkQ1” and “Control”). After injection, the rats continued to drink water containing SkQ1 (250 nM) during 14 d (group “Alloxan+SkQ1”) or were kept without SkQ1 (group “Alloxan”). Data on glucose blood level was measured by the glucose oxidase method ([…] et al. (1958) J. Lab. Clin. Med., 51:445-460) after 2 weeks of alloxan injection. All data are presented as the mean+/-SE.

NFκB = NFκB activation caused by TNFα; assay type: cell-based
Excerpt: Additionally, SkQ1 decreases the phosphorylation and degradation of IkBa caused by TNFα. NFκB is known to be permanently active in many inflammatory diseases, such as inflammatory bowel disease, arthritis, sepsis, gastritis, asthma and atherosclerosis (Monaco et al. (2004) PNAS., 101:5634-9).

endothelial cells = assay: TNFα-caused dysfunction of endothelial barrier (microscopy of VE-cadherin, beta-cathenin, F-actin); assay type: cell-based
[4] = Stability in dark plastic or glass vials (light sensitivity); assay type: physicochemical
Excerpt: Accordingly, one of the ways to further improve or increase stability of SkQ liquid compositions during storage and transportation is to protect it from light.

CC1=C(C)C(=O)C(CCCCCCCCCC[P+](c2ccccc2)(c2ccccc2)c2ccccc2)=CC1=O [SkQ1]
number of animals with apparent inflammation (increased paw volumes) [1]: reduced | MDA levels in the liver (db/db mice): significantly lowered | cell death compared to control without MTA [2]: greatly reduced | SkQ1, % ([3]; SkQ1 1 mM in 20% glycerol, phosphate buffer pH 4.77, stored at 60° C., day 0): 99.34% | SkQ1, % ([3]; SkQ1 1 mM in 20% glycerol, phosphate buffer pH 4.77, stored at 60° C., day 19): 95.30% | SkQ1, % ([3]; SkQ1 1 mM in 20% glycerol, phosphate buffer pH 4.77, stored at RT, day 0): 99.34% | SkQ1, % ([3]; SkQ1 1 mM in 20% glycerol, phosphate buffer pH 4.77, stored at RT, day 11): 99.71% | SkQ1, % ([3]; SkQ1 1 mM in 20% glycerol, phosphate buffer pH 4.77, stored at RT, day 13): 99.76% | SkQ1, % ([3]; SkQ1 1 mM in 20% glycerol, phosphate buffer pH 4.77, stored at RT, day 14): 99.68% | SkQ1, % ([3]; SkQ1 1 mM in 20% glycerol, phosphate buffer pH 4.77, stored at RT, day 17): 99.62% | SkQ1, % ([3]; SkQ1 1 mM in 20% glycerol, phosphate buffer pH 4.77, stored at RT, day 19): 99.63% | SkQ1, % ([3]; SkQ1 1 mM in 20% glycerol, phosphate buffer pH 4.77, stored at RT, day 21): 99.52% | SkQ1, % ([3]; SkQ1 1 mM in 20% glycerol, phosphate buffer pH 4.77, stored at RT, day 24): 99.57% | SkQ1, % ([3]; SkQ1 1 mM in 20% glycerol, phosphate buffer pH 4.77, stored at RT, day 61): 99.49% | SkQ1, % ([3]; SkQ1 with PEG-4000, solid, 4° C. in darkness, day 18): >99.9% | SkQ1, % ([3]; SkQ1 with PEG-4000, solid, 4° C. in darkness, day 19): 99.83% | SkQ1, % ([3]; SkQ1 with PEG-4000, solid, 4° C. in darkness, day 20): 99.80% | SkQ1, % ([3]; SkQ1 with dextran and p-ABA, solid, 60° C. in darkness, day 0): 97.13% | SkQ1, % ([3]; SkQ1 with dextran and p-ABA, solid, 60° C. in darkness, day 6): 39.22% | SkQ1, % ([3]; SkQ1 with dextran and p-ABA, solid, 60° C. in darkness, day 15): 7.07% | SkQ1, % ([3]; SkQ1 with dextran, solid, 60° C. in darkness, day 0): 96.71% | SkQ1, % ([3]; SkQ1 with dextran, solid, 60° C. in darkness, day 6): 20.66% | SkQ1, % ([3]; SkQ1 with dextran, solid, 60° C. in darkness, day 15): 24.14% | SkQ1, % ([3]; SkQ1 with dextran, solid, 60° C. in darkness, day 25): 18.93% | SkQ1, % ([3]; SkQ1 with myoinosite, solid, RT in darkness, day 0): 95.88% | SkQ1, % ([3]; SkQ1 with myoinosite, solid, RT in darkness, day 5): 96.86% | SkQ1, % ([3]; SkQ1 with myoinosite, solid, RT in darkness, day 6): 95.99% | SkQ1, % ([3]; SkQ1 with myoinosite, solid, RT in darkness, day 15): 92.26% | SkQ1, % ([3]; SkQ1 with p-aminobenzoic acid (p-ABA), solid, RT in darkness, day 0): 100% | SkQ1, % ([3]; SkQ1 with p-aminobenzoic acid (p-ABA), solid, RT in darkness, day 30): 58.42% | SkQ1, % ([3]; presumably SkQ1 in 50% 1,2-propylene glycol with lactic acid (10 eq), 60° C., day 0): >99.9% | SkQ1, % ([3]; presumably SkQ1 in 50% 1,2-propylene glycol with lactic acid (10 eq), 60° C., day 72): 96.6% | SkQ1, % ([3]; presumably SkQ1 in 50% 1,2-propylene glycol with pyruvic acid (10 eq), 60° C., day 0): >99.9% | SkQ1, % ([3]; presumably SkQ1 in 50% 1,2-propylene glycol with pyruvic acid (10 eq), 60° C., day 72): 93.2% | blood glucose, lower compared to animals without SkQ1 treatment (alloxan diabetes): about 2 fold | activation of NFκB (NFκB): prevent activation | phosphorylation and degradation of IkBa caused by TNFα (NFκB): decreases | translocation of transcription factor p65 (RelA) from the cytoplasm to the nucleus (NFκB): prevent translocation | disassembling of intracellular contacts and cytoskeleton reorganization caused by TNFα (endothelial cells): prevented | stability [4]: significantly increased
